Experimental data from patent US11447498B2, “Fused tetracyclic compounds and uses thereof in medicine” (SUNSHINE LAKE PHARMA CO., LTD., priority 2018, dated 2022).

Assays:
HBsAg secretion = assay: Inhibition experiment on HBsAg secretion (HepG 2,2,15 cells, ELISA); type: cell-based; settings: Hepatitis B virus, HepG2.2.15, read-out: HBsAg IC50
Text: (§1) The chromosomal integration of HepG2,2,15 cells (SELLS, PNAS, 1987 and SELLS, JV, 1988) has a complete HBV genome and stably expresses viral RNA and viral proteins. HepG2,2,15 cells are capable of secreting mature hepatitis B virus particles and HBsAg into the culture medium. Virus particles DNA and HBsAg secreted by HepG 2,2,15 cells can be quantified by qPCR and ELISA, and the effects of compounds on viral replication and HBsAg secretion can be detected.
(§2) HepG 2,2,15 cells were inoculated with 8,000 per cell to 96-well cell culture plates in duplicate, and were cultured for 3 days until the cells grew to full-hole. Cells were treated with 4-fold serial dilutions of compounds for 10 days, and were given once every other day. The final concentration of DMSO in all pores was 0.5% and DMSO was used as a drug-free control. The supernatant was collected for quantitative detection of HBsAg on day 11.
The level of HBsAg secreted by the cells after treatment of the compound was detected by ELISA method, and the method used a hepatitis B surface antigen diagnostic kit (Shanghai Kehua Biotech Co., Ltd. S10910113). 25 μL of the supernatant to be assayed (PBS was diluted to 75 μL) was added to per well in the ELISA plate, and the kit positive control and negative control were set. The ELIS A plate was blocked with a cover paper and incubated at 37° C. for 60 minutes. The ELISA plate was taken out, and the cover paper was teared off, and 50 μL of enzyme conjugate was added to each well. The ELISA plate was oscillated on the shaker for 10 seconds, blocked with a cover paper and incubated at 37° C. for 30 minutes. The ELISA plate was taken out, the cover paper was teared off, and the ELISA plate was washed 5 times: each time the liquid in the hole was discarded, and the washing liquid was filled into the holes, left to stand for 60 seconds, dried, and the liquid residue was patted to dry on the absorbent paper. A freshly prepared mixture of Developer A and Developer B was added to all wells immediately after washing: 100 μL per well. The ELISA plate was oscillated on the shaker for 10 seconds, blocked with a cover paper and incubated at 37° C. for 30 minutes. 50 μL of stop solution was added to all wells. Absorbance was read on the Envision plate reader at a wavelength of 450 nm.
Concentration-HBsAg OD450 was processed using Graphpad Prism 5 software, and IC50 of compounds inhibiting against HBsAg secretion was calculated by four-parameter nonlinear regression model.

HBV DNA replication = assay: Inhibition experiment on HBV virus replication (HepG 2,2,15 cells, supernatant HBV DNA by qPCR); type: cell-based; settings: Hepatitis B virus, HepG2.2.15, 10 days treatment, supernatant HBV DNA on day 11
Text: as §1
as §2, with “HBV DNA” for “HBsAg”
Viral genomic DNA was detected by qPCR method, and HBV primers were as follows: […]
The SYBR Premix Ex Taq D-Takara DRR081S kit was used, and 1 μL of cell culture supernatant was used as a template. A standard curve was made using a plasmid containing the HBV genome, and the viral copy number was calculated using the standard curve. Concentration-virus copy number was processed using Graphpad Prism 5 software, and IC50 of compounds inhibiting virus replication was calculated by four-parameter nonlinear regression model.

[1] = PK test experiments in SD rats; type: in vivo; parameters: VSS: unit not given here; settings: for AUC(0-inf) / AUC(0-t) / Cmax / clearance: male, rat, plasma
Experimental: (§3) The PK test in vivo of the compound of the present invention in SD rats (body weight 200-250 g, male, age 2-3 months, 3 per group with oral administration, 3 per group with intravenous injection) The SD rat was administered orally with 2.5 mg/kg or 5 mg/kg of the compound tested or intravenously injected with 0.5 mg/kg or 1 mg/kg of the compound tested. After administration, venous blood was collected at time points (0.083, 0.25, 0.5, 1, 2, 5, 7 and 24 hours) and collected in an anticoagulation tube to which EDTA-K2 was added. Plasma samples were extracted by liquid-liquid extraction and quantitatively analyzed by multiple reaction ion monitoring (MRM) on a triple quadrupole tandem mass spectrometer. Pharmacokinetic parameters were calculated using a noncompartmental method by WinNonLin 6.3 software.

[2] = PK test experiments in beagle dogs; type: in vivo; settings: for AUC(0-inf) / AUC(0-t) / Cmax / clearance: male, dog, plasma
Experimental: as §3, with “beagle dogs” for “SD rats”, “10-12 kg,” for “200-250 g,”, “10-12” for “2-3”, “beagle dog” for “SD rat”, “administered orally with 2.5 mg/kg or 5 mg/kg of the compound tested or intravenously injected with 0.5 mg/kg or 1 mg/kg of the compound tested.” left out, “4, 6, 8” for “5, 7”

Compound | IC50 (HBsAg secretion) [nM] | IC50 (HBV DNA replication) [nM] | VSS ([1]; IV, 1 mg/kg) | F ([1]; PO, 5 mg/kg) [%] | AUC(0-inf) ([1]; IV, 1 mg/kg) [ng·h/mL] | AUC(0-t) ([1]; IV, 1 mg/kg) [ng·h/mL] | Cmax ([1]; IV, 1 mg/kg) [ng/mL] | clearance ([1]; IV, 1 mg/kg) [mL/min/kg] | AUC(0-inf) ([1]; PO, 5 mg/kg) [ng·h/mL] | AUC(0-t) ([1]; PO, 5 mg/kg) [ng·h/mL] | Cmax ([1]; PO, 5 mg/kg) [ng/mL] | VSS ([2]; IV, 0.5 mg/kg) [kg⁻¹] | F ([2]; PO, 2.5 mg/kg) [%] | AUC(0-inf) ([2]; IV, 0.5 mg/kg) [ng·h/mL] | AUC(0-t) ([2]; IV, 0.5 mg/kg) [ng·h/mL] | Cmax ([2]; IV, 0.5 mg/kg) [ng/mL] | clearance ([2]; IV, 0.5 mg/kg) [mL/min/kg] | AUC(0-inf) ([2]; PO, 2.5 mg/kg) [ng·h/mL] | AUC(0-t) ([2]; PO, 2.5 mg/kg) [ng·h/mL] | Cmax ([2]; PO, 2.5 mg/kg) [ng/mL]
COCCCOc1cc2c(c3c1OCC3)-c1cc(=O)c(C(=O)O)cn1C(C(C)C)C2 (centres unmarked) [Example 2, 7-Isopropyl-4-(3-methoxypropoxy)-11-oxo-2,6,7,11-tetrahydro-1H-furo[2,3-h]pyrido[2,1-a]isoquinoline-10-carboxylic Acid] | 1.45 | 1.21 | 1.8 | 174.5 | 1330 | 1210 | 738 | 12.6 | 10600 | 10600 | 1860 | – | – | – | – | – | – | – | – | –
CC(C)C1Cc2cc(OCCC3CC3)c3c(c2-c2cc(=O)c(C(=O)O)cn21)CCO3 (centres unmarked) [Example 3, 4-(2-Cyclopropylethoxy)-7-isopropyl-11-oxo-2,6,7,11-tetrahydro-1H-furo[2,3-h]pyrido[2,1-a]isoquinoline-10-carboxylic Acid] | 1.4 | 1.6 | 1.5 | 167.4 | 1760 | 1630 | 744 | 9.45 | 14800 | 14700 | 1810 | – | – | – | – | – | – | – | – | –
CC(C)C1Cc2cc(-c3cnn(C(C)C)c3)c3c(c2-c2cc(=O)c(C(=O)O)cn21)CCO3 (centres unmarked) [Example 9, 7-Isopropyl-4-(1-isopropyl-1H-pyrazol-4-yl)-11-oxo-2,6,7,11-tetrahydro-1H-furo[2,3-h]pyrido[2,1-a]isoquinoline-10-carboxylic Acid] | 2.83 | 1.1 | 2.2 | 94 | 1190 | 1180 | 641 | 14 | 5590 | 5560 | 1630 | – | – | – | – | – | – | – | – | –
CC1(C)CCC2c3cc(OCCC4CC4)c4c(c3-c3cc(=O)c(C(=O)O)cn3N21)CCO4 (centres unmarked) [Example 13, 5-(2-Cyclopropylethoxy)-1,1-dimethyl-10-oxo-2,3,3a,7,8,10-hexahydro-1H-furo[3,2-f]pyrido[1,2-c]pyrrolo[2,1-a]phthalazine-11-carboxylic Acid] | 0.34 | < 0.24 | 1.4 | 129 | 2860 | 2830 | 1000 | 5.84 | 18400 | 18300 | 1700 | – | – | – | – | – | – | – | – | –
CC(C)N1Cc2cc(OCCC3CC3)c3c(c2-c2cc(=O)c(C(=O)O)cn21)CCO3 [Example 15, 4-(2-Cyclopropylethoxy)-7-isopropyl-11-oxo-2,6,7,11-tetrahydro-1H-furo [2,3-h]pyrido[2,1-a]phthalazine-10-carboxylic Acid] | 3.13 | 1.81 | 0.9 | 157.9 | 2280 | 2140 | 1500 | 7.32 | 17800 | 17700 | 2170 | 0.23 | 102.2 | 12200 | 11900 | 2010 | 0.69 | 62400 | 60500 | 7090
CC(C)N1Cc2cc(-c3cnn(C(C)C)c3)c3c(c2-c2cc(=O)c(C(=O)O)cn21)CCO3 [Example 17, 7-Isopropyl-4-(1-isopropyl-11-pyrazol-4-yl)-11-oxo-2,6,7,11-tetrahydro-1H-furo[2,3-h]pyrido[2,1-a]phthalazine-10-carboxylic Acid] | 3.27 | 1.51 | 1.01 | 130.6 | 1640 | 1610 | 932 | 10.1 | 10700 | 10700 | 1620 | – | – | – | – | – | – | – | – | –
CC(C)C1Cc2cc(-c3cnn(C4CCC4)c3)c3c(c2-c2cc(=O)c(C(=O)O)cn21)CCO3 (centres unmarked) [Example 33, 4-(1-Cyclobutyl-1H-pyrazol-4-yl)-7-isopropyl-11-oxo-2,6,7,11-tetrahydro-1H-furo[2,3-h]pyrido[2,1-a]isoquinoline-10-carboxylic Acid] | 1.36 | 1.23 | – | – | – | – | – | – | – | – | – | – | – | – | – | – | – | – | – | –
CC(C)C1Cc2cc(-c3cnn(C4CCOCC4)c3)c3c(c2-c2cc(=O)c(C(=O)O)cn21)CCO3 (centres unmarked) [Example 34, 7-Isopropyl-11-oxo-4-(1-(tetrahydro-2H-pyran-4-yl)-1H-pyrazol-4-yl)-2,6,7,11-tetrahydro-1H-furo[2,3-h]pyrido[2,1-a]isoquinoline-10-carboxylic Acid] | 2.37 | 3.72 | – | – | – | – | – | – | – | – | – | – | – | – | – | – | – | – | – | –
CC(C)C1Cc2cc(-c3cnn(C4COC4)c3)c3c(c2-c2cc(=O)c(C(=O)O)cn21)CCO3 (centres unmarked) [Example 35, 7-Isopropyl-4-(1-(oxetan-3-yl)-1H-pyrazol-4-yl)-11-oxo-2,6,7,11-tetra hydro-1H-furo[2,3-h]pyrido[2,1-a]isoquinoline-10-carboxylic Acid] | 3.29 | 2.35 | – | – | – | – | – | – | – | – | – | – | – | – | – | – | – | – | – | –
COCCCOc1cc2c(c3c1OC(C)(C)C3)-c1cc(=O)c(C(=O)O)cn1C(C(C)C)C2 (centres unmarked) [Example 39, 7-Isopropyl-4-(3-methoxypropoxy)-2,2-dimethyl-11-oxo-2,6,7,11-tetrahydro-1H-furo[2,3h]pyrido[2,1-a]isoquinoline-10-carboxylic Acid] | 0.91 | 1.65 | – | – | – | – | – | – | – | – | – | – | – | – | – | – | – | – | – | –
CC(C)C1Cc2cc(OCCC3CC3)c3c(c2-c2cc(=O)c(C(=O)O)cn21)CC(C)(C)O3 (centres unmarked) [Example 40, 4-(2-Cyclopropylethoxy)-7-isopropyl-2,2-dimethyl-11-oxo-2,6,7,11-tetrahydro-1H-furo[2,3-h]pyrido[2,1-a]isoquinoline-10-carboxylic Acid] | 0.54 | 1.45 | – | – | – | – | – | – | – | – | – | – | – | – | – | – | – | – | – | –
CC(C)C1Cc2cc(-c3cnn(C(F)F)c3)c3c(c2-c2cc(=O)c(C(=O)O)cn21)CC(C)(C)O3 (centres unmarked) [Example 41, 4-(1-(Difluoromethyl)-1H-pyrazol-4-yl)-7-isopropyl-2,2-dimethyl-11-oxo-2,6,7,11-tetrahydro-1H-furo[2,3-h]pyrido[2,1-a]isoquinoline-10-carboxylic Acid] | 0.54 | 2.09 | – | – | – | – | – | – | – | – | – | – | – | – | – | – | – | – | – | –
CC(C)N1Cc2cc(-c3cnn(C(F)F)c3)c3c(c2-c2cc(=O)c(C(=O)O)cn21)CCO3 [Example 43, 4-(1-(Difluoromethyl)-1H-pyrazol-4-yl)-7-isopropyl-11-oxo-2,6,7,11-tetrahydro-1H-furo[2,3-h]pyrido[2,1-a]phthalazine-10-carboxylic Acid] | 0.98 | 1.85 | – | – | – | – | – | – | – | – | – | 0.48 | 100.7 | 9990 | 9030 | 1080 | 0.83 | 49300 | 45500 | 5770
